One test deals with Cholinesterase (Equus caballus, UniProt P81908). In words: Inhibition of equine serum BChE using butyrylthiocholine iodide as substrate preincubated for 20mins before the addition of substrate by Ellman's method. Background: Ellman's reagent forms a yellow product with free thiols.
For a further test, the target named is Acetylcholinesterase (Electrophorus electricus, UniProt O42275). In words: Inhibition of Electrophorus electricus AChE using acetylthiocholine iodide as substrate preincubated for 20mins before the addition of substrate by Ellman's method.
Acetylcholinesterase, sequence (O42275 whole entry): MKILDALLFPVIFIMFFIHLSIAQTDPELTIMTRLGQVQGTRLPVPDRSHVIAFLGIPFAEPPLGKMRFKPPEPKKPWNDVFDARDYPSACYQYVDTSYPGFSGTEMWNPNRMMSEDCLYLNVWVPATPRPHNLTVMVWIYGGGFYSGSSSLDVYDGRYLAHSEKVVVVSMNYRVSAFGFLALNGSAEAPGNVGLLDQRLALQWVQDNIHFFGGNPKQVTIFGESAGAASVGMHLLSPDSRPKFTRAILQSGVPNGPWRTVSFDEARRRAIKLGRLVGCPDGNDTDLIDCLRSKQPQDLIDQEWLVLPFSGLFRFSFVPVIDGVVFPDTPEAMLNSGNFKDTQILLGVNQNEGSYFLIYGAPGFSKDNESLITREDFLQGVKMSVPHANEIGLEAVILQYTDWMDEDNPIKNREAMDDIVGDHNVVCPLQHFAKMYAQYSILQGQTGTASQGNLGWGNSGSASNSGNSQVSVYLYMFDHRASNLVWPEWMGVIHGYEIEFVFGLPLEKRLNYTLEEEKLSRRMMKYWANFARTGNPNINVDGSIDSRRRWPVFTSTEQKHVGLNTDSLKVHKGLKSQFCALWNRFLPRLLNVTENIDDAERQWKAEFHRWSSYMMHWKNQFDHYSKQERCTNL

Cholinesterase, sequence (P81908 whole entry): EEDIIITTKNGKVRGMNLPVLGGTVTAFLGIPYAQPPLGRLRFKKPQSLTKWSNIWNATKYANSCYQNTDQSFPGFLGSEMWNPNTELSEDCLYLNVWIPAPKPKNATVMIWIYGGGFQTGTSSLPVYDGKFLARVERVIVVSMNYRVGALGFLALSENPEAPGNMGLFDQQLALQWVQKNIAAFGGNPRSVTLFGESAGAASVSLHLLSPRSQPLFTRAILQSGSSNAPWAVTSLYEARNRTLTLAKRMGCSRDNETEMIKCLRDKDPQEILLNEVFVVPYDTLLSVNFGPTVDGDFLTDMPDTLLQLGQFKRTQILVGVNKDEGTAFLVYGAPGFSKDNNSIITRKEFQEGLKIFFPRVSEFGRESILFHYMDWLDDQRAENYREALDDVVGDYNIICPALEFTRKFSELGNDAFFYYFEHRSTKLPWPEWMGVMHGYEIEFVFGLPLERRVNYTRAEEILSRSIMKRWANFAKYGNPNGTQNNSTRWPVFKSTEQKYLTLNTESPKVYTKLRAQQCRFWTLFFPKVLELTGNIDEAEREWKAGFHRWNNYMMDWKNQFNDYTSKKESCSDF

With `C=CCNC(=O)[C@]12CCC(C)(C)C[C@H]1C1=CC[C@@H]3[C@@]4(C)C[C@@H](OC(C)=O)[C@H](OC(C)=O)C(C)(C)[C@@H]4CC[C@@]3(C)[C@]1(C)CC2`, the Ki on Cholinesterase (read-out: Ki) and on Acetylcholinesterase (read-out: Ki) was above 20 µM each time.
With `CC1(C)CC[C@]2(C(=O)OCCCCBr)CC[C@]3(C)C(=CC[C@@H]4[C@@]5(C)C[C@@H](O)[C@H](O)C(C)(C)[C@@H]5CC[C@]43C)[C@@H]2C1`, the Ki at Cholinesterase (read-out: Ki) and on Acetylcholinesterase (read-out: Ki) was above 10 µM each time.
For the molecule `CC1(C)CC[C@]2(C(=O)OCCO)CC[C@]3(C)C(=CC[C@@H]4[C@@]5(C)C[C@@H](O)[C@H](O)C(C)(C)[C@@H]5CC[C@]43C)[C@@H]2C1`, the Ki at Cholinesterase (read-out: Ki) and at Acetylcholinesterase (read-out: Ki) was above 100 µM throughout.
`CC1(C)CC[C@]2(C(N)=O)CC[C@]3(C)C(=CC[C@@H]4[C@@]5(C)C[C@@H](O)[C@H](O)C(C)(C)[C@@H]5CC[C@]43C)[C@@H]2C1` had an IC50 at Cholinesterase of 34.1 µM. Moreover, the Ki on Cholinesterase (read-out: Ki) was 18.1 µM; at Acetylcholinesterase (read-out: Ki), above 20 µM.
For the molecule `C=CCOC(=O)[C@]12CCC(C)(C)C[C@H]1C1=CC[C@@H]3[C@@]4(C)C[C@@H](O)[C@H](O)C(C)(C)[C@@H]4CC[C@@]3(C)[C@]1(C)CC2`, the Ki at Cholinesterase (read-out: Ki) and on Acetylcholinesterase (read-out: Ki) was above 30 µM throughout.
`CC1(C)CC[C@]2(C(=O)NCc3ccccc3)CC[C@]3(C)C(=CC[C@@H]4[C@@]5(C)C[C@@H](OC(=O)CCl)[C@H](OC(=O)CCl)C(C)(C)[C@@H]5CC[C@]43C)[C@@H]2C1` had an IC50 at Acetylcholinesterase of 20 µM. Besides, the Ki at Acetylcholinesterase (read-out: Ki) came to 25.1 µM.
In the case of `CCCNC(=O)[C@]12CCC(C)(C)C[C@H]1C1=CC[C@@H]3[C@@]4(C)C[C@@H](OC(C)=O)[C@H](OC(C)=O)C(C)(C)[C@@H]4CC[C@@]3(C)[C@]1(C)CC2`, the Ki at Cholinesterase (read-out: Ki) and on Acetylcholinesterase (read-out: Ki) was above 6 µM in each case.
Take `CC1(C)CC[C@]2(C(=O)OCc3ccc(Br)cc3)CC[C@]3(C)C(=CC[C@@H]4[C@@]5(C)C[C@@H](O)[C@H](O)C(C)(C)[C@@H]5CC[C@]43C)[C@@H]2C1`: the Ki on Cholinesterase (read-out: Ki) and on Acetylcholinesterase (read-out: Ki) was above 20 µM in each case.
As to `COC(=O)[C@]12CCC(C)(C)C[C@H]1C1=CC[C@@H]3[C@@]4(C)C[C@@H](OS(N)(=O)=O)[C@H](O)C(C)(C)[C@@H]4CC[C@@]3(C)[C@]1(C)CC2`, the Ki on Cholinesterase (read-out: Ki) and at Acetylcholinesterase (read-out: Ki) was above 40 µM in each case.
Consider `C#CCOC(=O)[C@]12CCC(C)(C)C[C@H]1C1=CC[C@@H]3[C@@]4(C)C[C@@H](O)[C@H](O)C(C)(C)[C@@H]4CC[C@@]3(C)[C@]1(C)CC2`, for which the Ki at Cholinesterase (read-out: Ki) and on Acetylcholinesterase (read-out: Ki) was above 10 µM each time.
With `CC(=O)O[C@H]1C[C@]2(C)[C@H]3CC=C4[C@@H]5CC(C)(C)CC[C@]5(C(=O)O)CC[C@@]4(C)[C@]3(C)CC[C@H]2C(C)(C)[C@H]1OC(C)=O`, the Ki on Cholinesterase (read-out: Ki) and on Acetylcholinesterase (read-out: Ki) was above 20 µM each time.
As to `CCCCCCCCCCCCCCCCCCOC(=O)[C@]12CCC(C)(C)C[C@H]1C1=CC[C@@H]3[C@@]4(C)C[C@@H](O)[C@H](O)C(C)(C)[C@@H]4CC[C@@]3(C)[C@]1(C)CC2`, the Ki entry on Cholinesterase and on Acetylcholinesterase was “ND(Insoluble)” each time.
On to `C#CCNC(=O)[C@]12CCC(C)(C)C[C@H]1C1=CC[C@@H]3[C@@]4(C)C[C@@H](O)[C@H](O)C(C)(C)[C@@H]4CC[C@@]3(C)[C@]1(C)CC2`, for which the Ki on Cholinesterase (read-out: Ki) and on Acetylcholinesterase (read-out: Ki) was above 20 µM in each case.
For the molecule `CCCCCCCCCCCCOC(=O)[C@]12CCC(C)(C)C[C@H]1C1=CC[C@@H]3[C@@]4(C)C[C@@H](O)[C@H](O)C(C)(C)[C@@H]4CC[C@@]3(C)[C@]1(C)CC2`, the Ki result at Cholinesterase and at Acetylcholinesterase was “ND(Insoluble)” in each case.
In the case of `CC1(C)CC[C@]2(C(=O)OCc3cccc(Cl)c3)CC[C@]3(C)C(=CC[C@@H]4[C@@]5(C)C[C@@H](O)[C@H](O)C(C)(C)[C@@H]5CC[C@]43C)[C@@H]2C1`, the Ki on Cholinesterase (read-out: Ki) and on Acetylcholinesterase (read-out: Ki) was above 10 µM in each case.
For the molecule `CCNC(=O)[C@]12CCC(C)(C)C[C@H]1C1=CC[C@@H]3[C@@]4(C)C[C@@H](OC(C)=O)[C@H](OC(C)=O)C(C)(C)[C@@H]4CC[C@@]3(C)[C@]1(C)CC2`, the Ki at Cholinesterase (read-out: Ki) and at Acetylcholinesterase (read-out: Ki) was above 14 µM in each case.
Regarding `C#CCNC(=O)[C@]12CCC(C)(C)C[C@H]1C1=CC[C@@H]3[C@@]4(C)C[C@@H](OC(C)=O)[C@H](OC(C)=O)C(C)(C)[C@@H]4CC[C@@]3(C)[C@]1(C)CC2`, the Ki was above 14 µM at Cholinesterase (read-out: Ki) and 8.14 µM at Acetylcholinesterase (read-out: Ki). The IC50 on Acetylcholinesterase amounted to 15.1 µM.
For `CC1(C)CC[C@]2(C(=O)NCc3ccccc3)CC[C@]3(C)C(=CC[C@@H]4[C@@]5(C)C[C@H](OC(=O)CCl)[C@H](OC(=O)CCl)C(C)(C)[C@@H]5CC[C@]43C)[C@@H]2C1`, the midpoint of inhibition on Acetylcholinesterase, the IC50, lay at 15.3 µM. On Acetylcholinesterase (read-out: Ki), the Ki is 6.25 µM.
Take `CC1(C)CC[C@]2(C(=O)NCc3ccccc3)CC[C@]3(C)C(=CC[C@@H]4[C@@]5(C)C[C@@H](O)[C@H](O)C(C)(C)[C@@H]5CC[C@]43C)[C@@H]2C1`: the Ki at Acetylcholinesterase (read-out: Ki) was above 10 µM.
With `CC1(C)CC[C@]2(C(=O)OCc3ccc(Cl)cc3)CC[C@]3(C)C(=CC[C@@H]4[C@@]5(C)C[C@@H](O)[C@H](O)C(C)(C)[C@@H]5CC[C@]43C)[C@@H]2C1`, the Ki on Cholinesterase (read-out: Ki) and at Acetylcholinesterase (read-out: Ki) was above 30 µM each time.
For `CC1(C)CC[C@]2(C(=O)OCc3ccccc3)CC[C@]3(C)C(=CC[C@@H]4[C@@]5(C)C[C@@H](O)[C@H](O)C(C)(C)[C@@H]5CC[C@]43C)[C@@H]2C1` [BENZYL MASLINATE], the Ki at Cholinesterase (read-out: Ki) and on Acetylcholinesterase (read-out: Ki) was above 14 µM throughout.
Regarding `CC(=O)O[C@@H]1C[C@]2(C)[C@H]3CC=C4[C@@H]5CC(C)(C)CC[C@]5(C(=O)O)CC[C@@]4(C)[C@]3(C)CC[C@H]2C(C)(C)[C@H]1OC(C)=O`, the Ki at Cholinesterase (read-out: Ki) and on Acetylcholinesterase (read-out: Ki) was above 10 µM in each case.
`C=CCNC(=O)[C@]12CCC(C)(C)C[C@H]1C1=CC[C@@H]3[C@@]4(C)C[C@@H](O)[C@H](O)C(C)(C)[C@@H]4CC[C@@]3(C)[C@]1(C)CC2`: the Ki on Cholinesterase (read-out: Ki) and on Acetylcholinesterase (read-out: Ki) was above 20 µM each time.
`CCNC(=O)[C@]12CCC(C)(C)C[C@H]1C1=CC[C@@H]3[C@@]4(C)C[C@@H](O)[C@H](O)C(C)(C)[C@@H]4CC[C@@]3(C)[C@]1(C)CC2`: the inhibition constant Ki at Cholinesterase (read-out: Ki) and on Acetylcholinesterase (read-out: Ki) was above 20 µM throughout.
Turning to `CC(=O)O[C@H]1C[C@]2(C)[C@H]3CC=C4[C@@H]5CC(C)(C)CC[C@]5(C(=O)NCc5ccccc5)CC[C@@]4(C)[C@]3(C)CC[C@H]2C(C)(C)[C@H]1OC(C)=O`, the Ki at Acetylcholinesterase (read-out: Ki) is above 10 µM.
As to `COC(=O)[C@]12CCC(C)(C)C[C@H]1C1=CC[C@@H]3[C@@]4(C)C[C@@H](O)[C@H](O)C(C)(C)[C@@H]4CC[C@@]3(C)[C@]1(C)CC2` [MASLINIC ACID METHYL ESTER], the Ki at Cholinesterase (read-out: Ki) and on Acetylcholinesterase (read-out: Ki) was above 50 µM in each case.
In the case of `CC(=O)O[C@@H]1C[C@]2(C)[C@H]3CC=C4[C@@H]5CC(C)(C)CC[C@]5(C(N)=O)CC[C@@]4(C)[C@]3(C)CC[C@H]2C(C)(C)[C@H]1OC(C)=O`, the Ki at Cholinesterase (read-out: Ki) and on Acetylcholinesterase (read-out: Ki) was above 20 µM throughout.

For orientation: Ki means the equilibrium dissociation constant of an inhibitor or competing ligand from its target. The term IC50 denotes the concentration that inhibits the measured activity by half.

(Values after ChEMBL document CHEMBL3779826, “Converting maslinic acid into an effective inhibitor of acylcholinesterases” (Eur J Med Chem, 2015).)
